Measurements published in patent publication US5202242A, “A83543 compounds and processes for production thereof” (DowElanco, priority 1991, dated 1993).
In brackets after ≈: the same amount, converted by molar mass. Like-named read-outs stand apart in the source and are kept apart here.

Experiments:
[1] = tested on: Tobacco Budworm; assay: Mite/insect screen: Tobacco Budworm (TBW); type: in vivo; details: Heliothis virescens, 144 h, 6 day
Protocol: (§1) The formula 1A compounds were tested for miticidal and insecticidal activity in the following mite/insect screen. Each test compound was formulated by dissolving the compound in an acetone-alcohol (1:1) mixture containing 23 g of TOXIMUL R (sulfonate/nonionic emulsifier blend) and 13 g of TOXIMUL S (sulfonate/nonionic emulsifier blend) per liter. These mixtures were then diluted with water to give the indicated concentrations.
(§2) Two-spotted spider mites and cotton aphids were introduced on squash cotyledons and allowed to establish on both leaf surfaces. The leaves were then sprayed with 5 ml of test solutions using a DeVilbiss atomizing sprayer at 10 psi. Both surfaces of the leaves were covered until run off and then allowed to dry for one hour. After standard exposure periods percent mortality was evaluated. Additional insects were evaluated using similar formulations and evaluation procedures.

[2] = tested on: Rootknot Nematode; assay: Mite/insect screen: Rootknot Nematode (NEM); type: in vivo, Meliiodyne spp.; details: 264 h, 11 day
Protocol: as §1, §2

[3] = tested on: Aster Leafhopper; assay: Mite/insect screen: Aster Leafhopper (ALH); type: in vivo; details: Macrosteles fascifrons, 24 hr
Protocol: as §1, §2

[4] = tested on: Beet Armyworm; assay: Mite/insect screen: Beet Armyworm (BAW); type: in vivo, Spodoptera exiqua; details: Spodoptera exigua, 144 h, 6 day
Protocol: as §1, §2

[5] = tested on: Southern Corn Rootworm; assay: Mite/insect screen: Southern Corn Rootworm (SCRW); type: in vivo, Diabrotica undecimpunctata howardi; details: 264 h, 11 day
Protocol: as §1, §2

[6] = tested on: Adult Stablefly; assay: In vitro activity against adult stable fly; type: in vivo; details: Stomoxys calcitrans
Description: (§3) The formula 1A compounds are also active against members of the insect order Diptera. Tables VIII and IX summarize the in vitro studies of the formula 1A compounds against blowfly larvae and adult stable fly.

[7] = tested on: Cotton Aphid; assay: Mite/insect screen: Cotton Aphid (CA); type: in vivo, Aphis gossypii Glover; details: Aphis gossypii, 4-5 day
Protocol: as §1, §2

[8] = tested on: German Cockroach; assay: Mite/insect screen: German Cockroach (GECR); type: in vivo; details: Blattella germanica
Protocol: as §1, §2

[9] = tested on: Neonate Tobacco Budworm; assay: LD50 against neonate tobacco budworm (petri dish assay); type: in vivo; details: Heliothis virescens; neonate larvae; mortality evaluated at 24 and 48 hours; mean of two tests
Protocol: The formula 1A compounds were evaluated in the following assay to determine the LD50 against neonate tobacco budworm (Heliothis virescens). A petri dish (100 mm×20 mm) is inverted and the lid lined with a #1 qualitative filter paper. Ten neonate larvae are placed in each dish and a 1 ml test solution is pipetted onto the insects. The petri dish bottom is then placed on the lid to contain the larvae. At 1 hr. after treatment, a small piece of Heliothis diet (modified shurry, Southland Products, Lake Village, AR) is added to each dish. The mortality is evaluated at 24 and 48 hours. Each test is run in triplicate.

[10] = tested on: Blowfly Larvae; assay: In vitro activity against blowfly larvae; type: in vivo; details: 5 ppm
Description: as §3

[11] = tested on: Two-spotted Spider Mite; assay: Mite/insect screen: Two-spotted Spider Mite (TSSM); type: in vivo; details: Tetranychus urticae, 4-5 day
Protocol: as §1, §2

[12] = 24 hr, read-out: % mortality 24 hr
[13] = 48 hr, read-out: % mortality 48 hr

For `CCC1CCCC(OC2CCC(N(C)C)C(C)O2)C(C)C(=O)C2=CC3C(C=C(C)C4CC(OC5OC(C)C(OC)C(O)C5OC)CC43)C2CC(=O)O1` (stereo not shown) [Compound A83543L], which inhibition at 200 ppm [1] is on record?
Its inhibition at 200 ppm is 100%.

What about the inhibition at 400 ppm [1] of the same molecule?
The inhibition at 400 ppm was 100%.

And the inhibition at 200 ppm [2]?
Its inhibition at 200 ppm is 0%.

And the inhibition at 400 ppm [2]?
The inhibition at 400 ppm was 0%.

And the inhibition at 200 ppm [3]?
The inhibition at 200 ppm was 100%.

And the inhibition at 400 ppm [3]?
The inhibition at 400 ppm was 100%.

What about the inhibition at 200 ppm [4] of the same molecule?
The inhibition at 200 ppm was 100%.

What about the inhibition at 400 ppm [4] of the same molecule?
Its inhibition at 400 ppm is 100%.

What about the inhibition at 200 ppm [5] of the same molecule?
Its inhibition at 200 ppm is 0%.

What about the inhibition at 400 ppm [5] of the same molecule?
Its inhibition at 400 ppm is 0%.

What about the mortality at 5 ppm [6, 12] of the same molecule?
The mortality at 5 ppm was 70%.

And the mortality at 5 ppm [6, 13]?
Its mortality at 5 ppm is 100%.

What about the inhibition at 200 ppm [7] of the same molecule?
The inhibition at 200 ppm was 0%.

What about the inhibition at 400 ppm [7] of the same molecule?
The inhibition at 400 ppm was 0%.

And the inhibition at 200 ppm ([8]; 168 h, 7 day)?
Its inhibition at 200 ppm is 40%.

And the inhibition at 400 ppm ([8]; 168 h, 7 day)?
Its inhibition at 400 ppm is 0%.

And the inhibition at 200 ppm ([8]; 504 h, 21 day)?
The inhibition at 200 ppm was 100%.

What about the inhibition at 400 ppm ([8]; 504 h, 21 day) of the same molecule?
The inhibition at 400 ppm was 100%.

And the LC50 [9]?
Its LC50 is 26 µg/mL (≈ 35.5 µM).

What about the “% mortality” value [10] of the same molecule?
Its value is 90%.

And the inhibition at 200 ppm [11]?
The inhibition at 200 ppm was 0%.

And the inhibition at 400 ppm [11]?
The inhibition at 400 ppm was 0%.

How did the inhibition at 200 ppm [1] turn out when `CCC1CCCC(OC2CCC(NC)C(C)O2)C(C)C(=O)C2=CC3C(C=CC4CC(OC5OC(C)C(OC)C(O)C5OC)CC43)C2CC(=O)O1` (stereo not shown) [Compound A83543M] was run?
The inhibition at 200 ppm was 70%.

And the inhibition at 400 ppm [1]?
The inhibition at 400 ppm was 100%.

What about the inhibition at 200 ppm [2] of the same molecule?
Its inhibition at 200 ppm is 0%.

And the inhibition at 400 ppm [2]?
Its inhibition at 400 ppm is 0%.

And the inhibition at 200 ppm [3]?
Its inhibition at 200 ppm is 60%.

And the inhibition at 400 ppm [3]?
The inhibition at 400 ppm was 100%.

What about the inhibition at 200 ppm [4] of the same molecule?
The inhibition at 200 ppm was 0%.

And the inhibition at 400 ppm [4]?
Its inhibition at 400 ppm is 0%.

What about the inhibition at 200 ppm [5] of the same molecule?
The inhibition at 200 ppm was 0%.

What about the inhibition at 400 ppm [5] of the same molecule?
The inhibition at 400 ppm was 0%.

And the mortality at 5 ppm [6, 12]?
The mortality at 5 ppm was 60%.

And the mortality at 5 ppm [6, 13]?
The mortality at 5 ppm was 100%.

What about the inhibition at 200 ppm [7] of the same molecule?
Its inhibition at 200 ppm is 0%.

And the inhibition at 400 ppm [7]?
Its inhibition at 400 ppm is 0%.

What about the inhibition at 200 ppm ([8]; 168 h, 7 day) of the same molecule?
The inhibition at 200 ppm was 0%.

What about the inhibition at 400 ppm ([8]; 168 h, 7 day) of the same molecule?
Its inhibition at 400 ppm is 0%.

What about the inhibition at 200 ppm ([8]; 504 h, 21 day) of the same molecule?
The inhibition at 200 ppm was 20%.

And the inhibition at 400 ppm ([8]; 504 h, 21 day)?
Its inhibition at 400 ppm is 40%.

And the LC50 [9]?
Its LC50 is 22.6 µg/mL (≈ 32.1 µM).

What about the inhibition at 200 ppm [11] of the same molecule?
Its inhibition at 200 ppm is 0%.

And the inhibition at 400 ppm [11]?
Its inhibition at 400 ppm is 0%.

Which inhibition at 200 ppm [1] does the source give for `CCC1CCCC(OC2CCC(NC)C(C)O2)C(C)C(=O)C2=CC3C(C=C(C)C4CC(OC5OC(C)C(OC)C(O)C5OC)CC43)C2CC(=O)O1` (stereo not shown) [Compound A83543N] here?
Its inhibition at 200 ppm is 100%.

What about the inhibition at 400 ppm [1] of the same molecule?
The inhibition at 400 ppm was 100%.

What about the inhibition at 200 ppm [2] of the same molecule?
The inhibition at 200 ppm was 0%.

What about the inhibition at 400 ppm [2] of the same molecule?
The inhibition at 400 ppm was 0%.

And the inhibition at 200 ppm [3]?
Its inhibition at 200 ppm is 100%.

And the inhibition at 400 ppm [3]?
Its inhibition at 400 ppm is 100%.

What about the inhibition at 200 ppm [4] of the same molecule?
The inhibition at 200 ppm was 90%.

What about the inhibition at 400 ppm [4] of the same molecule?
The inhibition at 400 ppm was 100%.

What about the inhibition at 200 ppm [5] of the same molecule?
The inhibition at 200 ppm was 0%.

And the inhibition at 400 ppm [5]?
The inhibition at 400 ppm was 0%.

What about the mortality at 5 ppm [6, 12] of the same molecule?
The mortality at 5 ppm was 20%.

What about the mortality at 5 ppm [6, 13] of the same molecule?
The mortality at 5 ppm was 90%.

And the inhibition at 200 ppm [7]?
Its inhibition at 200 ppm is 0%.

What about the inhibition at 400 ppm [7] of the same molecule?
Its inhibition at 400 ppm is 0%.

And the inhibition at 200 ppm ([8]; 168 h, 7 day)?
Its inhibition at 200 ppm is 0%.

And the inhibition at 400 ppm ([8]; 168 h, 7 day)?
Its inhibition at 400 ppm is 0%.

And the inhibition at 200 ppm ([8]; 504 h, 21 day)?
Its inhibition at 200 ppm is 0%.

What about the inhibition at 400 ppm ([8]; 504 h, 21 day) of the same molecule?
The inhibition at 400 ppm was 0%.

What about the LC50 [9] of the same molecule?
Its LC50 is 40 µg/mL (≈ 55.7 µM).

What about the inhibition at 200 ppm [11] of the same molecule?
Its inhibition at 200 ppm is 0%.

What about the inhibition at 400 ppm [11] of the same molecule?
Its inhibition at 400 ppm is 0%.
